In patent US5873359A, “Methods and devices for treating pulmonary vasoconstriction and asthma” (The General Hospital Corporation, priority 1994, dated 1999):

Columns and labels:
[1] = tested on: acute hypoxic pulmonary hypertension; assay: Inhaled NO in lambs with pulmonary vasoconstriction induced by hypoxia; type: in vivo
Procedure: Five awake lambs were studied during a period of breathing a hypoxic gas mixture to induce acute hypoxic pulmonary hypertension. Three lambs were excluded due to sepsis and heart failure. Hemodynamic monitoring techniques similar to those described above were used. We employed a non-rebreathing circuit containing a 25 liter reservoir bag and the Fi O2 was reduced to 0.06-0.08 to produce a mean PAP near 25 mm Hg at a Pa O2 near 30 mm Hg. Either 40 or 80 ppm NO was then added to the inspired gas mixture. Total gas flows were maintained at 35 l/min to prevent rebreathing due to hyperventilation. The inspired Fi O2 was monitored with n electrode (model 5590, Hudson Co., Temecala, Calif.) and pure CO2 was added to the inspired gas to maintain the end tidal CO2 concentration at 4.5-6%. Measurements of central hemodynamics and gas exchange were obtained at baseline, during hypoxia, and at 3 and 6 minutes of No breathing during hypoxia. Comparisons were performed using paired t-tests.

[2] = tested on: hypoxia-induced pulmonary vasoconstriction; assay: 40 ppm NO in healthy volunteers breathing 12% O2 (hypoxic, vasoconstricted lung); type: in vivo, human
Procedure: The effects of breathing 40 ppm NO were studied in five awake, healthy human volunteer subjects inhaling various gas mixtures for 10 min periods, with measurements starting at 6 min.

normal bronchial tone = assay: NO effects on normal bronchial tone; type: in vivo, Hartley strain guinea pigs; conditions: 300 ppm NO, without methacholine infusion (FIG. 8)
Procedure: (§1) Male Hartley strain guinea pigs (300-440g body wt) were anesthetized with α-chloralose (50 mg/kg) and urethane (500 mg/kg) (Drazen et al., J. Appl. Physiol. 48:613-618, 1980). A tracheostomy was performed, and the animals were intubated with a tubing adaptor (ID 1.65 mm) and ventilated with a small animal ventilator (Harvard Apparatus, a division of Ealing Scientific, Natick, Mass.) at 8 ml/kg and 60 breaths/min. A jugular vein was cannulated for intravenous administration of drugs. The chest was opened by bilateral excision of a portion of the ribs anteriorly so that the lungs were exposed to atmospheric pressure (Shore and Drazen, J. Appl. Physiol. 67:2504-2511, 1989). A positive end expiratory pressure of 3-4 cmH2 O was provided.
(§2) Guinea pigs were then placed inside a plethysmograph (Amdur and Mead, Am. J. Physiol. 192:363-368, 1958), that was connected to a large reservoir containing copper mesh to maintain the plethysmograph isothermal. Plethysmograph pressure was measured with a differential pressure transducer (Celesco, Canoga Park, Calif.); the opposite side of this transducer was connected to a similar reservoir. Pressure at the airway opening was measured from a side tap in the tracheal canula. Transpulmonary pressure was measured with a differential pressure transducer (Celesco) as the difference between airway opening pressure and the pressure inside the plethysmograph. […]

[3] = tested on: methacholine bronchoconstriction; assay: NO and terbutaline aerosol during methacholine infusion; type: in vivo, Hartley strain guinea pigs; conditions: NO gas before or after inhaled terbutaline
Procedure: as §1, §2

[4] = tested on: primary pulmonary hypertension; conditions: cited from earlier work
[5] = hypoxia + 40-80 ppm NO, FiO2 0.06-0.08, n = 5, mean ± S.E.
[6] = hypoxia + 40-80 ppm NO, n = 5, mean ± S.E.
[7] = hypoxia + 40-80 ppm NO, n = 5, mean ± S.E., p < .01 vs hypoxia

SMILES: [N]=O [NO, nitric oxide]
- Pa O2 during hypoxia with vs without NO ([1]; 40 or 80 ppm NO): similar
- Pv O2 during hypoxia with vs without NO ([1]; 40 or 80 ppm NO): similar
- drop of mean PVR ([1]; 40 or 80 ppm NO): 33%
- pulmonary artery pressure ([1]; 40 or 80 ppm NO): returned to control levels
- Pa CO2 [1, 5]: 40.0 ± 2.7 mm Hg
- PaO2 [1, 5]: 31.1 ± 1.7 mm Hg
- Pv O2 [1, 5]: 19.8 ± 3.2 mm Hg
- pHa [1, 5]: 7.40 ± 0.03
- CO [1, 6]: 7.56 ± 0.79 L/min
- CVP [1, 6]: 2.8 ± 1.6 mm Hg
- LAP [1, 6]: 4.2 ± 1.0 mm Hg
- SVR [1, 6]: 13.7 ± 1.0 mm Hg/l/min
- PAP [1, 7]: 18.7 ± 1.1 mm Hg
- PVR [1, 7]: 2.01 ± 0.35 mm Hg/l/min
- SAP [1, 7]: 106 ± 5 mm Hg
- CO ([2]; 12% O2 + 40 ppm NO, n = 5): 8.37 ± 1.68 L/min
- CVP ([2]; 12% O2 + 40 ppm NO, n = 5): 5.2 ± 2.6 mmHg
- MAP ([2]; 12% O2 + 40 ppm NO, n = 5): 86.0 ± 5.7 mmHg
- PCWP ([2]; 12% O2 + 40 ppm NO, n = 5): 8.5 ± 2.2 mmHg
- PVR ([2]; 12% O2 + 40 ppm NO, n = 5): 0.62 mmHg · min/l
- PaCO2 ([2]; 12% O2 + 40 ppm NO, n = 5): 34 ± 5 mmHg
- PaO2 ([2]; 12% O2 + 40 ppm NO, n = 5): 45 ± 5 mmHg
- SaO2 ([2]; 12% O2 + 40 ppm NO, n = 5): 83.9 ± 5.7%
- PAP ([2]; 12% O2 + 40 ppm NO, n = 5, p < 0.01 vs previous situation): 13.7 ± 1.7 mmHg
- reversal of hypoxia-induced pulmonary vasoconstriction ([2]; 40 ppm NO, 12% v/v oxygen): reversed completely
- baseline bronchomotor tone (normal bronchial tone): decreased the baseline bronchomotor tone
- bronchodilating effects of NO plus terbutaline [3]: additive
- PAP difference as percentage of ΔPAP ([4]; 40 ppm NO): about 6%
- difference in PAP versus air ([4]; 40 ppm NO): 2.9 mm Hg
- average PAP ([4]; breathing 40 ppm NO, seven patients, 59.6 mm Hg breathing air): 56.7 mm Hg
- average reduction in PVR ([4]; during inhalation of NO): 9%
- decrease in SAP ([4]; during inhalation of NO): No corresponding decrease in SAP
